From ChEMBL document CHEMBL1154013, “Brain-penetrating 2-aminobenzimidazole H(1)-antihistamines for the treatment of insomnia” (Bioorg Med Chem Lett, 2009)

How the values were obtained:
Cytochrome P450 2D6 = Cytochrome P450 2D6 (Homo sapiens, UniProt P10635); assay: Inhibition of CYP2D6; assay type: ADME
Homo sapiens = species: Homo sapiens; assay: Selectivity for human muscarinic M1 receptor over human histamine H1 receptor
[1] = molecular target: T1, Voltage-gated inwardly rectifying potassium channel KCNH2 (Homo sapiens, UniProt Q12809); assay: Displacement of [3H]dofetolide from human ERG channel expressed in HEK293 cells at 37 degC by liquid scintillation assay; assay type: cell-based
T1 sequence (Q12809 whole entry): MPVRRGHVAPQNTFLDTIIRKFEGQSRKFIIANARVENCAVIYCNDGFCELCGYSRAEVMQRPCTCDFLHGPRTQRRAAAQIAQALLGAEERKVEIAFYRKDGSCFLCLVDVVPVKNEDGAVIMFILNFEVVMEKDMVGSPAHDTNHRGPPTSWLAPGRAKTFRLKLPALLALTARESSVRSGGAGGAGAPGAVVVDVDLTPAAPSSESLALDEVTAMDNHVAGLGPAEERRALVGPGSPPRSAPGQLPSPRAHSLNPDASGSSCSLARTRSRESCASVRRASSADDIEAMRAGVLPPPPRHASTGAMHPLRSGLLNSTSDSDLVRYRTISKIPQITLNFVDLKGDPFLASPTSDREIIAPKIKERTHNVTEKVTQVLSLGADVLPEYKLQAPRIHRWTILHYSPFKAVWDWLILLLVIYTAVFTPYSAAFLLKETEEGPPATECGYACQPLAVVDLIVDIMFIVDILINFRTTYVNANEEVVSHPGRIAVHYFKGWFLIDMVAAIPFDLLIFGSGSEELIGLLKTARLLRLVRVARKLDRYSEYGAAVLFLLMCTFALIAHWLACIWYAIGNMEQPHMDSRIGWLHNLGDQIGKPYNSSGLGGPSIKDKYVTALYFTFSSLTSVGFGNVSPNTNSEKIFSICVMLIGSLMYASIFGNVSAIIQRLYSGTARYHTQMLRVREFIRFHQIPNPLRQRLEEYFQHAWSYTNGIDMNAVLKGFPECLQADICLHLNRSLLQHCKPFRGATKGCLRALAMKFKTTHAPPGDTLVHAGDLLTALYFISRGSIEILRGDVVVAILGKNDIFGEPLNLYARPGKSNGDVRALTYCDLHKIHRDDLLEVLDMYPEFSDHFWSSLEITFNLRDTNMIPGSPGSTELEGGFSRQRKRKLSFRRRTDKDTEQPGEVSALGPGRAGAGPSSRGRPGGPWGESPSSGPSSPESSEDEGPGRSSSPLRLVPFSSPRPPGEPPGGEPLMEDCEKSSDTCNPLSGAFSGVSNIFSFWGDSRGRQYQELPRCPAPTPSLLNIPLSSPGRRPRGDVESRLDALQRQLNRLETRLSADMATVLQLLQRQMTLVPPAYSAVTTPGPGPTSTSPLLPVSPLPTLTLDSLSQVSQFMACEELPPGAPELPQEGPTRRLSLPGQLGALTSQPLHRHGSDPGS

Histamine H1 receptor = Histamine H1 receptor (Homo sapiens, UniProt P35367); assay: Displacement of [3H]pyrilamine from human histamine H1 receptor expressed in CHO Flp-In cells by liquid scintillation assay; assay type: cell-based
Sequence of Histamine H1 receptor (P35367 whole entry): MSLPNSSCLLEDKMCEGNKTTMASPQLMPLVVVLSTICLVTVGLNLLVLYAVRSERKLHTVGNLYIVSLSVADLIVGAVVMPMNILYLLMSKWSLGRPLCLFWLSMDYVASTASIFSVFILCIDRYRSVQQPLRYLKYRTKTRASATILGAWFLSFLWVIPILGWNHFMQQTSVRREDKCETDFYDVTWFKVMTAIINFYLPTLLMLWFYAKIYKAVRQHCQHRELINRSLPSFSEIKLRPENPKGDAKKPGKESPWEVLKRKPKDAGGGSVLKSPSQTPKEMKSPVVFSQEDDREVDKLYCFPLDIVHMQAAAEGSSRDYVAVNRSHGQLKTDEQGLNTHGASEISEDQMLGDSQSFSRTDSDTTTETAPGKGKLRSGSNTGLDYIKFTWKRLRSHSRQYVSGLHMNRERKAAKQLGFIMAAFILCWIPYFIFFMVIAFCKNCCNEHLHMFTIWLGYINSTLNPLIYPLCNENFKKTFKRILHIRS

Cytochrome P450 3A4 = Cytochrome P450 3A4 (Homo sapiens, UniProt P08684); assay: Inhibition of CYP3A4; assay type: ADME
Sequence of Cytochrome P450 3A4 (P08684 whole entry): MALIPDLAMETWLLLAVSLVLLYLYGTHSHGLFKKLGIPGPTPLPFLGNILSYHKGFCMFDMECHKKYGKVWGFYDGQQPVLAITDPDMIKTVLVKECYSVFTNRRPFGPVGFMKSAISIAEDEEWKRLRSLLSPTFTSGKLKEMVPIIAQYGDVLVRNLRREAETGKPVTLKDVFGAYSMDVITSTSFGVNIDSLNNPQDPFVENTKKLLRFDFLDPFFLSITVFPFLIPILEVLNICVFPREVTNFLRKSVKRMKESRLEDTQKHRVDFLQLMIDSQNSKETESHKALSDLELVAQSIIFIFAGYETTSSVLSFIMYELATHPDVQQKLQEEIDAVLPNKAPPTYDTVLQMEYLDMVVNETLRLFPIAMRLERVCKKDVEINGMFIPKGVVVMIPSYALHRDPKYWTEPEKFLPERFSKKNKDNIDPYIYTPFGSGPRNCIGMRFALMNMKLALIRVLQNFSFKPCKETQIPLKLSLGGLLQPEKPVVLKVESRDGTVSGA

[2] = molecular target: T2, Muscarinic acetylcholine receptor M1 (Homo sapiens, UniProt P11229); assay: Displacement of [3H]N-methyl Scopolamine from human muscarinic M1 receptor expressed in CHO Flp-In cells by liquid scintillation assay; assay type: cell-based
T2 sequence (P11229 whole entry): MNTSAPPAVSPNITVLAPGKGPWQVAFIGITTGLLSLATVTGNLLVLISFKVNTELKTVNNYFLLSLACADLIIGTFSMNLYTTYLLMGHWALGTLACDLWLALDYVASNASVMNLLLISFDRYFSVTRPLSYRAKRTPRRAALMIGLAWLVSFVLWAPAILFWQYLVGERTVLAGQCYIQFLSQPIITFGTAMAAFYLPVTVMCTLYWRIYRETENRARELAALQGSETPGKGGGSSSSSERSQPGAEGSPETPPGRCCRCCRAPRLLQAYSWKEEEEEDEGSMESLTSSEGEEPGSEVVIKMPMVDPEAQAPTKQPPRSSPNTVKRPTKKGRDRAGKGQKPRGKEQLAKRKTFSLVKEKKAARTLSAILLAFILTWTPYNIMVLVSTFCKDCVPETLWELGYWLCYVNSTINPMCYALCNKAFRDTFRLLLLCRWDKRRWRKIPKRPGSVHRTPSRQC

Brain [3] = assay: Biodistribution in rat brain assessed per gram of tissue at 1 mg/kg, iv after 2 hrs; assay type: ADME, organism-based; design: dose 1 mg/kg, route intravenous; conditions: in vivo
[4] = Ratio of drug level in brain to plasma in rat at 1 mg/kg, iv after 2 hrs; assay type: ADME, organism-based; design: dose 1 mg/kg, route intravenous
Brain [5] = assay: Biodistribution in rat brain at 1 mg/kg, iv after 2 hrs in presence of triprolidine; assay type: ADME, organism-based; design: dose 1 mg/kg, route intravenous; conditions: in vivo
Plasma = assay: Drug level in rat plasma assessed per gram of tissue at 1 mg/kg, iv after 2 hrs; assay type: ADME, organism-based; design: dose 1 mg/kg, route intravenous; conditions: in vivo
[6] = Ratio of drug level in brain to plasma in rat at 30 mg/kg, po after 4 hrs; assay type: ADME, organism-based; design: dose 30 mg/kg, route oral
[7] = molecular target: T1, Voltage-gated inwardly rectifying potassium channel KCNH2; assay: Inhibition of human ERG channel expressed in HEK293 cells by patch clamp assay; assay type: cell-based
[8] = Apparent permeability across human Caco-2 cell membrane; assay type: ADME, cell-based
Caco-2 = assay: Ratio of permeability from apical to basolateral side to basolateral to apical side in human Caco-2 cells; assay type: ADME, cell-based
Rattus norvegicus [9] = assay: Antihistamine activity in Wistar rat EEG/EMG model assessed as rapid eye movement sleep stage at 30 mg/kg, po administered during activity portion of diurnal cycle 6 hrs after lights-off measured in 4 hrs; assay type: functional
Rattus norvegicus [10] = assay: Antihistamine activity in Wistar rat EEG/EMG model assessed as longest 3 REM bouts at 30 mg/kg, po administered during activity portion of diurnal cycle 6 hrs after lights-off measured in 6 hrs; assay type: functional
Rattus norvegicus [11] = assay: Antihistamine activity in Wistar rat EEG/EMG model assessed as non rapid eye movement sleep stage latency at 30 mg/kg, po administered during activity portion of diurnal cycle 6 hrs after lights-off measured in 4 hrs; assay type: functional
Rattus norvegicus [12] = assay: Antihistamine activity in Wistar rat EEG/EMG model assessed as rapid eye movement sleep stage latency at 30 mg/kg, po administered during activity portion of diurnal cycle 6 hrs after lights-off measured in 4 hrs; assay type: functional
Rattus norvegicus [13] = assay: Antihistamine activity in Wistar rat EEG/EMG model assessed as increase in time spent in non rapid eye movement sleep stage at 30 mg/kg, po administered during activity portion of diurnal cycle 6 hrs after lights-off measured in 4 hrs; assay type: functional
[14] = Drug level in Sprague-Dawley rat plasma at 10 mg/kg, po after 4 hrs; conditions: read-out: Drug uptake
Brain [15] = assay: Biodistribution in Sprague-Dawley rat brain at 10 mg/kg, po assessed per gram of tissue after 4 hrs; conditions: in vivo
[16] = Ratio of drug level in brain to plasma in rat at 10 mg/kg, po after 4 hrs; assay type: ADME, organism-based; design: dose 10 mg/kg, route oral
[17] = Bioavailability in Sprague-Dawley rat at 5 mg/kg, iv; assay type: ADME, organism-based; conditions: in vivo, read-out: Drug uptake
[18] = Clearance in Sprague-Dawley rat at 10 mg/kg, po; assay type: ADME, organism-based; design: dose 10 mg/kg, route oral; conditions: in vivo
Rattus norvegicus [19] = assay: Antihistamine activity in Wistar rat EEG/EMG model assessed as longest 3 NREM bouts at 30 mg/kg, po administered during activity portion of diurnal cycle 6 hrs after lights-off measured in 6 hrs; assay type: functional

Sequence of Cytochrome P450 2D6 (P10635 whole entry): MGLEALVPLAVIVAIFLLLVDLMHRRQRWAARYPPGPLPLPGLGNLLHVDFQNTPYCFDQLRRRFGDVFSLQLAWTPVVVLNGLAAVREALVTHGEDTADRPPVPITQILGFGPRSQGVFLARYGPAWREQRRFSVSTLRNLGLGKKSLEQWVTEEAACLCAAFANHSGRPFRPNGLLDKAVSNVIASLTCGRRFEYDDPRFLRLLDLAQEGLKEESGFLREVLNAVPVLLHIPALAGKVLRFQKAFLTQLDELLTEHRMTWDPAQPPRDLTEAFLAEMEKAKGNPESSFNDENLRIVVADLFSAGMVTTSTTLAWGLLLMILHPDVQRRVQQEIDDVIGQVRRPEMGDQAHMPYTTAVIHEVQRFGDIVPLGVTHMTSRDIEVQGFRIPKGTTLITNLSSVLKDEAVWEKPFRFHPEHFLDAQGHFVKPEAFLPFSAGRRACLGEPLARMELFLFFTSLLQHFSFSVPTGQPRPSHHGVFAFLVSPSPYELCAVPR

Structure (SMILES) | IC50 (Cytochrome P450 2D6; read-out: IC50) | Selectivity ratio (Homo sapiens) | Ki [1] | Ki (Histamine H1 receptor; read-out: Ki) | IC50 (Cytochrome P450 3A4) | also measured
Cc1ccc(Cn2c(N3CCC(N(C)C)CC3)nc3ccccc32)cc1 | 7210 nM | > 1000 | 73 nM | 1.5 nM | > 5000 nM | –
COc1ccc(Cn2c(N3CCC(N(C)CC4CCOCC4)CC3)nc3ccccc32)cc1 | 8180 nM | > 1000 | 102 nM | 14.1 nM | > 5000 nM | –
COc1ccc(Cn2c(N3CCC(n4cc(C)cn4)CC3)nc3ccccc32)cc1 | 7320 nM | > 1000 | > 5000 nM | 7.1 nM | > 5000 nM | –
CN(Cc1ccccc1)C1CCN(c2nc3ccccc3n2Cc2ccc(F)cc2)CC1 | – | – | – | 3.6 nM | – | Ki ([2]; read-out: Ki): 3580 nM; IC50 (Cytochrome P450 2D6): 805 nM
CN(CC1CCCCC1)C1CCN(c2nc3ccccc3n2Cc2ccc(F)cc2)CC1 | 360 nM | – | – | – | – | Ki [2]: 3860 nM; Ki (Histamine H1 receptor): 4.4 nM
Fc1ccc(Cn2c(N3CCC(NCC4CCOCC4)CC3)nc3ccccc32)cc1 | 12100 nM | > 1000 | 426 nM | 4.5 nM | > 5000 nM | –
Fc1ccc(Cn2c(N3CCC(n4cccn4)CC3)nc3ccccc32)cc1 | 1480 nM | – | – | 18.3 nM | > 5000 nM | –
CN(c1ccccc1)C1CCN(c2nc3ccccc3n2Cc2ccc(F)cc2)CC1 | > 20000 nM | – | – | – | – | Ki [2]: > 10000 nM; Ki (Histamine H1 receptor): 80.5 nM
Fc1ccc(Cn2c(N3CCC(n4cccc4)CC3)nc3ccccc32)cc1 | 1530 nM | > 1000 | 157 nM | 59.3 nM | > 5000 nM | –
COc1ccc(Cn2c(N3CCC(N(C)C)CC3)nc3ccccc32)cc1 | 6070 nM | – | – | 2.4 nM | > 5000 nM | –
CN(CCO)C1CCN(c2nc3ccccc3n2Cc2ccc(F)cc2)CC1 | 35100 nM | > 1000 | 116 nM | 3.2 nM | > 5000 nM | –
CN(CCc1ccccc1)C1CCN(c2nc3ccccc3n2Cc2ccc(F)cc2)CC1 | – | – | – | 2.4 nM | – | Ki ([2]; read-out: Ki): 89 nM; IC50 (Cytochrome P450 2D6): 502 nM
Cc1ccc(/C(=C\CN2CCCC2)c2ccccn2)cc1 [TRIPROLIDINE] | – | – | – | – | – | Drug uptake (Brain [3]): 55.6 ng/g; Kp at 2 h [4]: 4.5; Drug uptake (Brain [5]): 55.6 ng; Drug uptake (Plasma): 7.1 ng/g
Cc1cnn(C2CCN(c3nc4ccccc4n3Cc3ccc(F)cc3)CC2)c1 | – | – | – | – | – | Kp at 4 h [6]: 2.3
CN(c1ncccn1)C1CCN(c2nc3ccccc3n2Cc2ccc(F)cc2)CC1 | – | – | – | 75.2 nM | – | Ki ([2]; read-out: Ki): > 10000 nM; IC50 (Cytochrome P450 2D6): 1040 nM
CN(C1CCCCC1)C1CCN(c2nc3ccccc3n2Cc2ccc(F)cc2)CC1 | – | – | – | 2.8 nM | – | Ki ([2]; read-out: Ki): 2740 nM; IC50 (Cytochrome P450 2D6): 2050 nM
CN(c1nccc(=O)[nH]1)C1CCN(c2nc3ccccc3n2Cc2ccc(F)cc2)CC1 [MIZOLASTINE] | – | – | 7260 nM | 2.7 nM | – | Ki ([2]; read-out: Ki): > 10000 nM; IC50 (Cytochrome P450 2D6): > 20000 nM; Drug uptake (Brain [3]): 0 ng/g; Drug uptake (Brain [5]): 55.6 ng; IC50 [7]: 441 nM; Drug uptake (Plasma): 6.3 ng/g
O=C1CCCCN1C1CCN(c2nc3ccccc3n2Cc2ccc(F)cc2)CC1 | 4350 nM | > 1000 | > 7500 nM | 6.6 nM | > 5000 nM | Papp [8]: 12.4 ×10⁻⁶ cm/s; Ratio (Caco-2): 0.6
Fc1ccc(Cn2c(N3CCC(n4ccnc4)CC3)nc3ccccc32)cc1 | 1120 nM | > 1000 | 137 nM | 1.3 nM | 72 nM | –
Cc1ccc(-c2nc3ccc(C)cn3c2CC(=O)N(C)C)cc1 [ZOLPIDEM] | – | – | – | – | – | Activity (Rattus norvegicus [9]): 0.4%; Time (Rattus norvegicus [10]): 1.4 min; Time (Rattus norvegicus [11]): 7 min; Time (Rattus norvegicus [12]): 186 min; Activity (Rattus norvegicus [13]): 48.3%
CN(CC1CCOCC1)C1CCN(c2nc3ccccc3n2Cc2ccc(F)cc2)CC1 | 11000 nM | – | – | – | > 5000 nM | concentration at 4 h [14]: 9 ng/mL; Drug uptake (Brain [3]): 104 ng/g; Activity (Rattus norvegicus [9]): 2.6%; Drug uptake (Brain [15]): 94 ng/g; Kp at 4 h [16]: 10; Time (Rattus norvegicus [10]): 0.5 min; Time (Rattus norvegicus [11]): 21 min; Kp at 2 h [4]: 6.3; bioavailability [17]: 2%; Drug uptake (Brain [5]): 39.4 ng; CL/F [18]: 134 mL/min/kg; Drug uptake (Plasma): 19.2 ng/g; Time (Rattus norvegicus [19]): 11 min; Time (Rattus norvegicus [12]): 110 min; Activity (Rattus norvegicus [13]): 47.2%
CNC1CCN(c2nc3ccccc3n2Cc2ccc(F)cc2)CC1 | – | – | – | 2.4 nM | – | Ki ([2]; read-out: Ki): 988 nM; IC50 (Cytochrome P450 2D6): 6660 nM
CN(C1CCOCC1)C1CCN(c2nc3ccccc3n2Cc2ccc(F)cc2)CC1 | 6360 nM | – | – | – | – | Ki [2]: 14700 nM; Drug uptake (Brain [3]): 55 ng/g; Kp at 2 h [4]: 3.5; Drug uptake (Brain [5]): 39.4 ng; Drug uptake (Plasma): 18.1 ng/g; Ki (Histamine H1 receptor): 3.3 nM
COCCN(C)C1CCN(c2nc3ccccc3n2Cc2ccc(F)cc2)CC1 | 4440 nM | – | – | 2.2 nM | > 5000 nM | –
COc1ccc(Cn2c(N3CCC(NCC4CCOCC4)CC3)nc3ccccc32)cc1 | 16300 nM | > 1000 | 1460 nM | 14.1 nM | > 5000 nM | –
CN(C)CCN(C)C1CCN(c2nc3ccccc3n2Cc2ccc(F)cc2)CC1 | 6130 nM | > 1000 | 776 nM | 2.9 nM | > 5000 nM | –
CN(C)C1CCN(c2nc3ccccc3n2Cc2ccc(F)cc2)CC1 | 12800 nM | > 1000 | 57 nM | 1.8 nM | > 5000 nM | Drug uptake (Brain [3]): 50 ng/g; Kp at 2 h [4]: 4.6; Drug uptake (Brain [5]): 55.3 ng; Drug uptake (Plasma): 10.9 ng/g
